# In paper PMC2639596, “Antimicrobial peptides effectively kill a broad spectrum of Listeria monocytogenes and Staphylococcus aureus strains independently of origin, sub-type, or virulence factor expression” (BMC Microbiology, 2008):
# Legend:
# [1] = test system: Listeria monocytogenes; test: MIC of host defense peptides in liquid medium (microbroth dilution); format: cell-based; conditions: 37°C; for MIC: 18–24 h; for MIC values against L. monocytogenes (range over strains): range over 25 strains, MHB pH 7.4, 18–24 h
# Protocol: (§1) Experiments were carried out with a collection of 25 Listeria monocytogenes strains (Table 1) and 16 Staphylococcus aureus strains (Table 2) representing different lineages and serotypes (L. monocytogenes), spa types (S. aureus), and origins (food processing environment, food products, and human clinical isolates). Six L. monocytogenes strains were mutants of the EGD strain and were mutated in genes known to be involved in stress tolerance. The S. aureus collection comprised two deletion mutants, strains Sa113/ΔmprF [8] and Sa113/ΔdltA [7], known to be more sensitive to host defense peptides. Two of the S. aureus strains could not immediately be assigned to an existing spa type and we are in the process of acquiring the additional information that is needed to assign a new spa type to them. The strains were obtained from The National Institute of Aquatic Resources and The National Food Institute, Technical University of Denmark, Faculty of Life Sciences, University of Copenhagen, Denmark, Statens Serum Institut, Denmark, University of Würzburg, Germany and Campden Food and Drink Association, United Kingdom. Stock cultures were stored at -80°C in 4% (w/V) glycerol, 0.5% (w/V) glucose, and 2.0% (w/V) skimmed milk powder. The bacteria were grown in Brain Heart Infusion (BHI) broth (Oxoid, CM0225), Tryptone Soy Broth (TSB) (Oxoid, CM129), and cation-adjusted Mueller-Hinton II Broth (MHB) (Becton Dickinson, 212322) adjusted to pH 7.4. To avoid unspecific binding of host defense peptides to plastic ware and agar, all MIC determinations were carried out using polypropylene plastic ware and radial diffusion assays were carried out in MHB supplemented with 1% agarose (Invitrogen, 15510-027) as gelling agent.
# (§2) Protamine was purchased from Sigma (P4020-5G). Plectasin, novicidin, and novispirin G10 were supplied by Novozymes A/S. Recombinant HBD-3 was purchased from PeproTech (300-52).
# (§3) The strain collection was tested for sensitivity to protamine, plectasin, novicidin, and novispirin G10 by determining their minimal inhibitory concentration (MIC) using a microbroth dilution method. Colonies from a BHI agar plate incubated overnight were suspended in MHB pH 7.4 to a turbidity of 0.11–0.12 at 546 nm (approx. 1.0 × 10^8 CFU/ml) and diluted in MHB to a concentration of 5.0 × 10^5 CFU/ml. 90 μl of bacterial suspension was incubated with 10 μl of peptide solution in polypropylene 96-well plates (Nunc, 442587) for 18–24 h at 37°C. The peptide solutions were made fresh on the day of assay and diluted two-fold. The range of concentrations assayed were 0.031–32 μg/ml for novicidin, 0.125–128 μg/ml for protamine and novispirin G10, and 0.25–256 μg/ml for plectasin. MIC was the lowest peptide concentration at which visual growth was inhibited. The minimum bactericidal concentration (MBC) values were determined by plating l0 μl samples from wells with no visible growth onto BHI agar plates. MBC was the lowest concentration of each peptide of which 99.9% reduction of the initial inoculum was observed.
# [2] = test system: Staphylococcus aureus; test: as above; format: cell-based; conditions: 37°C; for MIC: 18–24 h; for MIC values against S. aureus (range over strains): range over 16 strains, MHB pH 7.4, 18–24 h
# Protocol: as §1, §2, §3
# [3] = test system: L. monocytogenes and S. aureus; test: Minimum bactericidal concentration (MBC), plating from MIC wells; format: cell-based, Listeria monocytogenes, Staphylococcus aureus; conditions: 99.9% reduction of initial inoculum; 10 μl from wells with no visible growth plated on BHI agar
# Protocol: as §3
# [4] = strain 2275 (EGD dps del), MHB pH 7.4, 5.0 × 10^5 CFU/ml
# [5] = strain 2307 (EGD resD del), MHB pH 7.4, 5.0 × 10^5 CFU/ml
# [6] = strain 2315 (EGD sigB del), MHB pH 7.4, 5.0 × 10^5 CFU/ml
# [7] = strain 2317 (EGD prfA del), MHB pH 7.4, 5.0 × 10^5 CFU/ml
# [8] = strain 2374 (EGD perR ins), MHB pH 7.4, 5.0 × 10^5 CFU/ml
# [9] = strain 2375 (EGD perR del), MHB pH 7.4, 5.0 × 10^5 CFU/ml
# [10] = strain 4239, MHB pH 7.4, 5.0 × 10^5 CFU/ml
# [11] = strain 4446, MHB pH 7.4, 5.0 × 10^5 CFU/ml
# [12] = strain 4459, MHB pH 7.4, 5.0 × 10^5 CFU/ml
# [13] = strain 4666, MHB pH 7.4, 5.0 × 10^5 CFU/ml
# [14] = strain 6895, MHB pH 7.4, 5.0 × 10^5 CFU/ml
# [15] = strain 7291, MHB pH 7.4, 5.0 × 10^5 CFU/ml
# [16] = strain 7418, MHB pH 7.4, 5.0 × 10^5 CFU/ml
# [17] = strain EGD (wildtype), MHB pH 7.4, 5.0 × 10^5 CFU/ml
# [18] = strain H13-1, MHB pH 7.4, 5.0 × 10^5 CFU/ml
# [19] = strain LO28 (wildtype), MHB pH 7.4, 5.0 × 10^5 CFU/ml
# [20] = strain La22, MHB pH 7.4, 5.0 × 10^5 CFU/ml
# [21] = strain La111, MHB pH 7.4, 5.0 × 10^5 CFU/ml
# [22] = strain M103-1, MHB pH 7.4, 5.0 × 10^5 CFU/ml
# [23] = strain N53-1, MHB pH 7.4, 5.0 × 10^5 CFU/ml
# [24] = strain No40-1, MHB pH 7.4, 5.0 × 10^5 CFU/ml
# [25] = strain O57, MHB pH 7.4, 5.0 × 10^5 CFU/ml
# [26] = strain R479a, MHB pH 7.4, 5.0 × 10^5 CFU/ml
# [27] = strain Scott A, MHB pH 7.4, 5.0 × 10^5 CFU/ml
# [28] = strain V518a, MHB pH 7.4, 5.0 × 10^5 CFU/ml
# [29] = strain 796, MHB pH 7.4, 5.0 × 10^5 CFU/ml
# [30] = strain 2148-jvi, MHB pH 7.4, 5.0 × 10^5 CFU/ml
# [31] = strain 8325-4 (wildtype), MHB pH 7.4, 5.0 × 10^5 CFU/ml
# [32] = strain 15033, MHB pH 7.4, 5.0 × 10^5 CFU/ml
# [33] = strain B29997, MHB pH 7.4, 5.0 × 10^5 CFU/ml
# [34] = strain B31369, MHB pH 7.4, 5.0 × 10^5 CFU/ml
# [35] = strain J15033, MHB pH 7.4, 5.0 × 10^5 CFU/ml
# [36] = strain K3-B2, MHB pH 7.4, 5.0 × 10^5 CFU/ml
# [37] = strain KES 439, MHB pH 7.4, 5.0 × 10^5 CFU/ml
# [38] = strain KES 626, MHB pH 7.4, 5.0 × 10^5 CFU/ml
# [39] = strain KES 735, MHB pH 7.4, 5.0 × 10^5 CFU/ml
# [40] = strain KES 855, MHB pH 7.4, 5.0 × 10^5 CFU/ml
# [41] = strain Sa113 (wildtype), MHB pH 7.4, 5.0 × 10^5 CFU/ml
# [42] = strain ΔdltA (Sa113 dltA ins), MHB pH 7.4, 5.0 × 10^5 CFU/ml
# [43] = strain ΔmprF (Sa113 mprF del), MHB pH 7.4, 5.0 × 10^5 CFU/ml
# [44] = strain 14943, MHB pH 7.4, 5.0 × 10^5 CFU/ml
substance,measurement,setting,value
novispirin G10,MIC,[1]; [4],64 µg/mL
same,MIC,[1]; [5],32 µg/mL
same,MIC,[1]; [6],64 µg/mL
same,MIC,[1]; [7],64 µg/mL
same,MIC,[1]; [8],32 µg/mL
same,MIC,[1]; [9],32 µg/mL
same,MIC,[1]; [10],64 µg/mL
same,MIC,[1]; [11],64 µg/mL
same,MIC,[1]; [12],32 µg/mL
same,MIC,[1]; [13],64 µg/mL
same,MIC,[1]; [14],96 µg/mL
same,MIC,[1]; [15],128 µg/mL
same,MIC,[1]; [16],64 µg/mL
same,MIC,[1]; [17],64 µg/mL
same,MIC,[1]; [18],64 µg/mL
same,MIC,[1]; [19],16 µg/mL
same,MIC,[1]; [20],64 µg/mL
same,MIC,[1]; [21],32 µg/mL
same,MIC,[1]; [22],64 µg/mL
same,MIC,[1]; [23],32 µg/mL
same,MIC,[1]; [24],64 µg/mL
same,MIC,[1]; [25],128 µg/mL
same,MIC,[1]; [26],64 µg/mL
same,MIC,[1]; [27],32 µg/mL
same,MIC,[1]; [28],64 µg/mL
same,MIC,[2]; [29],128 µg/mL
same,MIC,[2]; [30],64 µg/mL
same,MIC,[2]; [31],128 µg/mL
same,MIC,[2]; [32],128 µg/mL
same,MIC,[2]; [33],128 µg/mL
same,MIC,[2]; [34],256 µg/mL
same,MIC,[2]; [35],128 µg/mL
same,MIC,[2]; [36],128 µg/mL
same,MIC,[2]; [37],128 µg/mL
same,MIC,[2]; [38],64 µg/mL
same,MIC,[2]; [39],128 µg/mL
same,MIC,[2]; [40],64 µg/mL
same,MIC,[2]; [41],128 µg/mL
same,MIC,[2]; [42],2 µg/mL
same,MIC,[2]; [43],8 µg/mL
same,minimum bactericidal concentrations (MBC),[3],identical to the MICs
novicidin,MIC values against L. monocytogenes (range over strains),[1],2 to 8 µg/mL
same,MIC,[1]; [4],4 µg/mL
same,MIC,[1]; [5],2 µg/mL
same,MIC,[1]; [6],4 µg/mL
same,MIC,[1]; [7],4 µg/mL
same,MIC,[1]; [8],4 µg/mL
same,MIC,[1]; [9],4 µg/mL
same,MIC,[1]; [10],4 µg/mL
same,MIC,[1]; [11],4 µg/mL
same,MIC,[1]; [12],4 µg/mL
same,MIC,[1]; [13],8 µg/mL
same,MIC,[1]; [14],4 µg/mL
same,MIC,[1]; [15],8 µg/mL
same,MIC,[1]; [16],4 µg/mL
same,MIC,[1]; [17],4 µg/mL
same,MIC,[1]; [18],4 µg/mL
same,MIC,[1]; [19],2 µg/mL
same,MIC,[1]; [20],4 µg/mL
same,MIC,[1]; [21],4 µg/mL
same,MIC,[1]; [22],4 µg/mL
same,MIC,[1]; [23],2 µg/mL
same,MIC,[1]; [24],4 µg/mL
same,MIC,[1]; [25],4 µg/mL
same,MIC,[1]; [26],4 µg/mL
same,MIC,[1]; [27],4 µg/mL
same,MIC,[1]; [28],8 µg/mL
same,MIC values against S. aureus (range over strains),[2],0.5 to 12 µg/mL
same,MIC,[2]; [29],6 µg/mL
same,MIC,[2]; [30],4 µg/mL
same,MIC,[2]; [31],8 µg/mL
same,MIC,[2]; [44],8 µg/mL
same,MIC,[2]; [32],8 µg/mL
same,MIC,[2]; [33],4 µg/mL
same,MIC,[2]; [34],12 µg/mL
same,MIC,[2]; [35],8 µg/mL
same,MIC,[2]; [36],4 µg/mL
same,MIC,[2]; [37],4 µg/mL
same,MIC,[2]; [38],4 µg/mL
same,MIC,[2]; [39],4 µg/mL
same,MIC,[2]; [40],4 µg/mL
same,MIC,[2]; [41],6 µg/mL
same,MIC,[2]; [42],0.5 µg/mL
same,MIC,[2]; [43],1 µg/mL
same,minimum bactericidal concentrations (MBC),[3],identical to the MICs
protamine,MIC values against L. monocytogenes (range over strains),[1],8 to 32 µg/mL
same,MIC,[1]; [4],16 µg/mL
same,MIC,[1]; [5],8 µg/mL
same,MIC,[1]; [6],8 µg/mL
same,MIC,[1]; [7],16 µg/mL
same,MIC,[1]; [8],32 µg/mL
same,MIC,[1]; [9],32 µg/mL
same,MIC,[1]; [10],32 µg/mL
same,MIC,[1]; [11],16 µg/mL
same,MIC,[1]; [12],16 µg/mL
same,MIC,[1]; [13],8 µg/mL
same,MIC,[1]; [14],16 µg/mL
same,MIC,[1]; [15],32 µg/mL
same,MIC,[1]; [16],32 µg/mL
same,MIC,[1]; [17],8 µg/mL
same,MIC,[1]; [18],16 µg/mL
same,MIC,[1]; [19],8 µg/mL
same,MIC,[1]; [20],16 µg/mL
same,MIC,[1]; [21],8 µg/mL
same,MIC,[1]; [22],32 µg/mL
same,MIC,[1]; [23],16 µg/mL
same,MIC,[1]; [24],16 µg/mL
same,MIC,[1]; [25],16 µg/mL
same,MIC,[1]; [26],16 µg/mL
same,MIC,[1]; [27],16 µg/mL
same,MIC,[1]; [28],32 µg/mL
same,MIC values against S. aureus (range over strains),[2],8 to 32 µg/mL
same,MIC,[2]; [29],16 µg/mL
same,MIC,[2]; [30],16 µg/mL
same,MIC,[2]; [31],16 µg/mL
same,MIC,[2]; [44],16 µg/mL
same,MIC,[2]; [32],32 µg/mL
same,MIC,[2]; [33],16 µg/mL
same,MIC,[2]; [34],16 µg/mL
same,MIC,[2]; [35],16 µg/mL
same,MIC,[2]; [36],16 µg/mL
same,MIC,[2]; [37],32 µg/mL
same,MIC,[2]; [38],16 µg/mL
same,MIC,[2]; [39],16 µg/mL
same,MIC,[2]; [40],16 µg/mL
same,MIC,[2]; [41],16 µg/mL
same,MIC,[2]; [42],8 µg/mL
same,MIC,[2]; [43],8 µg/mL
